Results published in US7750169B2 (Biocodex, priority 2008, dated 2010).

Assay: particle size distribution measured under wet conditions (Malvern Mastersizer 2000 SM)
Assay type: physicochemical
Details: stiripentol particles of Example 1 after double recrystallization from toluene
Procedure: This particle size distribution is measured under wet conditions.

Diameter of 90% of the particles (d90): ≤ 250 μm
Compound: CC(C)(C)C(O)/C=C/c1ccc2c(c1)OCO2 (stereo not shown) [stiripentol, 4-dimethyl-1-[(3,4-methylenedioxy)-phenyl]-1-penten-3-ol]
